# In patent US8357673B2, “4-arylazo-3,5-diamino-pyrazole compounds and use thereof” (Univerzita Palackeho V Olomouci, priority 2004, dated 2013):
# Where two headings read alike, the source gives them in different places.
# Key:
# CDK2/cyclin E = target: T1, CDK2/cyclin E (Homo sapiens, UniProt P24941); experiment: CDK2/cyclin E kinase inhibition assay (histone H1, [γ-33P]ATP); format: biochemical; conditions: for IC50: averaged from triplicates, 15 μM ATP
# T1 construct: made in house; host or cells: Sf9 insect cells (baculovirus co-infection)
# Method: (§1) CDK1/cyclin B and CDK2/cyclin E kinases were produced in Sf9 insect cells coinfected with appropriate baculoviral constructs. The cells were harvested 70 h post infection, incubated in lysis buffer (50 mM Tris pH 7.4, 150 mM NaCl, 5 mM EDTA, 20 mM NaF, 1% Tween 20, 1 mM DTT, 0.1 mM PMSF, 0.5 μg/ml leupeptine, 1 μg/ml aprotonine) for 30 min on ice and the soluble fraction was recovered by centrifugation at 20.000 g for 10 min. The enzymes were purified on NiNTA column (Qiagen), stored at 4° C. and used within a week. To carry out the enzyme inhibition assays under linear conditions, the final point test system for kinase activity measurement was used. Kinase was added to reaction mixture in such a way as to obtain linear activity with respect to the concentration of enzyme and with respect to time. For determination of kinase inhibition the reaction mixture contained 1 mg/ml histone H1 (type III-S, Sigma) in the presence of 15 μM ATP, 0.05 μCi [γ-^33P]ATP and the tested compound in a final volume of 10 μl; all in reaction buffer (50 mM HEPES, 10 mM MgCl2, 5 mM EGTA, 10 mM 2-glycerolphosphate, 1 mM NaF, 1 mM DTT, pH 7.4). After 20 min incubation, the reactions were stopped by the addition of 5 μl of a 3% H3PO4, aliquots were spotted on P-81 phosphocellulose (Whatman, USA) that was subsequently washed 3× with 5% H3PO4 and finally air dried. The measurements of kinase inhibition employed digital image analyzer BAS-1800 (Fujifilm, Japan). Kinase activity was usually expressed as a percentage of maximum activity. […] For the purpose of kinetic analysis, the activity was expressed as arbitrary units (AU) of digital image analyzer signal.
# CDK1/cyclin B = target: T2, CDK1/cyclin B (Homo sapiens, UniProt P06493); experiment: CDK1/cyclin B kinase inhibition assay (histone H1, [γ-33P]ATP); format: biochemical; conditions: averaged from triplicates; 15 μM ATP
# T2 construct: made in house; host or cells: Sf9 insect cells (baculovirus co-infection)
# Method: as §1
# [1] = system: MCF7 (human breast adenocarcinoma); experiment: In vitro cytotoxicity, Calcein AM, 72 h; format: cell-based; conditions: for IC50: read-out: IC50 (μM) MCF7
# Method: (§2) Tested drugs were added to the cell cultures in six different concentration and kept at 37° C. and 5% CO2 for three days.
# (§3) The cells, cultured in DMEM (supplemented with 10% fetal calf serum, 4 mM glutamine, 100 IU/ml penicillin, 100 μg/ml streptomycin) in a humidified CO2 incubator at 37° C., were redistributed into 96-well microtitre plates (10.000 cells per well). After 12 h preincubation, tested compounds in six-fold dilutions were added. Treatment of cells with the tested compounds (in the 1-100 μM range) lasted for 72 h.
# [2] = system: K562 (human chronic myeloblastic leukemia); experiment: In vitro cytotoxicity, Calcein AM, 72 h; format: cell-based; conditions: for IC50: read-out: IC50 (μM) K562
# Method: as §2, §3
# [3] = system: HOS (human osteogenic sarcoma); experiment: In vitro cytotoxicity, Calcein AM, 72 h; format: cell-based; conditions: for IC50: read-out: IC50 (μM) HOS
# Method: as §2, §3
# [4] = system: G 361 (human malignant melanoma); experiment: In vitro cytotoxicity, Calcein AM, 72 h; format: cell-based; conditions: for IC50: read-out: IC50 (μM) G361
# Method: as §2, §3
# [5] = In vitro cytotoxicity, Calcein AM, 72 h; format: cell-based, human; conditions: human, at 100 μM
# Method: as §2, §3
# [6] = G 361 cells (human malignant melanoma), 72 h, read-out: % of viable cells G361
# [7] = HOS cells (human osteogenic sarcoma), read-out: % of viable cells HOS
# [8] = K562 cells (human chronic myeloblastic leukemia), 72 h, read-out: % of viable cells K562
# [9] = MCF7 cells (human breast adenocarcinoma), 72 h, read-out: % of viable cells MCF7
# [10] = Homo sapiens, MCF7, 72 h, Calcein AM, triplicates
# [11] = Homo sapiens, K562, 72 h, Calcein AM, triplicates
# [12] = Homo sapiens, Calcein AM, triplicates
# [13] = Homo sapiens, G-361, 72 h, Calcein AM, triplicates
# T2 sequence (P06493 whole entry): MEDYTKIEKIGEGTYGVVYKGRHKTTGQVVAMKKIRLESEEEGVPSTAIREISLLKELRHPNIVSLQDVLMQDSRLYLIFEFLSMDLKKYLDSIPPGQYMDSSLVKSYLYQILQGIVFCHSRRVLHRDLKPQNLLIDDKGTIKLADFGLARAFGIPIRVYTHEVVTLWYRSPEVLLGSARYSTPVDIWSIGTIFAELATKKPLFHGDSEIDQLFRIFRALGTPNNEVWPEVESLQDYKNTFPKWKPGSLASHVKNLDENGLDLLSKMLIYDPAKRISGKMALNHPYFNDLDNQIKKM
# T2 sequence (P14635 whole entry partner): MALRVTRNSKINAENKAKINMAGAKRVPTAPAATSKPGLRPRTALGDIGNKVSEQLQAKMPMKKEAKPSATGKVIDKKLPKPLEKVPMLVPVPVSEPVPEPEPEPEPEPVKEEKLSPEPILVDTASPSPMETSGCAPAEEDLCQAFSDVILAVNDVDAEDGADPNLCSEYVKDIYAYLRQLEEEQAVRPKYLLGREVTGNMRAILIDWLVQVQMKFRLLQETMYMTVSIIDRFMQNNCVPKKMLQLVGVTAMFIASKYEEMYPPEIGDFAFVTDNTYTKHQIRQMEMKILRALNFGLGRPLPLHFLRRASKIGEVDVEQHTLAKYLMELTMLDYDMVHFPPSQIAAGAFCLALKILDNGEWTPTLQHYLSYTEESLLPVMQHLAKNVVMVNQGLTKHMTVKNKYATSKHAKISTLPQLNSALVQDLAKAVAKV
SMILES,IC50 (CDK2/cyclin E) [µM],IC50 (CDK1/cyclin B) [µM],"viability at 72 h, 100 µM [5, 6] [%]","viability at 72 h, 100 µM [5, 7] [%]","viability at 72 h, 100 µM [5, 8] [%]","viability at 72 h, 100 µM [5, 9] [%]",also measured
"Nc1n[nH]c(N)c1N=Nc1ccccc1 [Compound 1b, 3,5-diamino-4-(phenyl)azo-pyrazole]",22,25,,,,,"IC50 ([1]; 72 h, Calcein AM, triplicates): > 100 µM; % of viable cells MCF7 ([1]; at 100 μM, 72 h): (74 ± 5%); IC50 ([2]; 72 h, Calcein AM, triplicates): > 100 µM; % of viable cells K562 ([2]; at 100 μM, 72 h): (90 ± 14%); IC50 ([3]; Calcein AM, triplicates): > 100 µM; % of viable cells HOS ([3]; at 100 μM): (83 ± 8%); IC50 ([4]; 72 h, Calcein AM, triplicates): > 100 µM; % of viable cells G361 ([4]; at 100 μM, 72 h): (75 ± 2%)"
"Nc1n[nH]c(N)c1/N=N/c1ccc(F)cc1 [Compound 3b, 3,5-diamino-4-(4-fluoro)phenylazo-pyrazole]",24,25,,,,,
"Nc1n[nH]c(N)c1/N=N/c1ccc(I)cc1 [Compound 6b, 3,5-diamino-4-(4-iodo)phenylazo-pyrazole]",,> 100,,,,,
"Nc1n[nH]c(N)c1N=Nc1ccccc1[N+](=O)[O-] [Compound 7b, 3,5-diamino-4-(2-nitro)phenylazo-pyrazole]",6.1,2.6,58,57,48,62,"IC50 [1, 10]: > 100 µM; IC50 [2, 11]: 100 ± 10 µM; IC50 [3, 12]: > 100 µM; IC50 [4, 13]: > 100 µM"
"Nc1n[nH]c(N)c1/N=N/c1cccc([N+](=O)[O-])c1 [Compound 8b, 3,5-diamino-4-(3-nitro)phenylazo-pyrazole]",,4.8,69,95,28,44,"IC50 [1, 10]: 65 ± 7 µM; IC50 [2, 11]: 79 ± 6 µM; IC50 [3, 12]: > 100 µM; IC50 [4, 13]: > 100 µM"
"Nc1n[nH]c(N)c1/N=N/c1ccc([N+](=O)[O-])cc1 [Compound 9b, 3,5-diamino-4-(4-nitro)phenylazo-pyrazole]",,16,61,80,25,60,"IC50 ([1]; Homo sapiens, MCF7, 72 h): > 100 µM; IC50 ([2]; Homo sapiens, K562, 72 h): 71 ± 6 µM; IC50 ([3]; Homo sapiens): > 100 µM; IC50 ([4]; Homo sapiens, G-361, 72 h): > 100 µM"
"Nc1n[nH]c(N)c1N=Nc1ccccc1C(=O)O [Compound 13b, 3,5-diamino-4-(2-carboxy)phenylazo-pyrazole]",88,70,,,,,
"CC(=O)NS(=O)(=O)c1ccc(N=Nc2c(N)n[nH]c2N)cc1 [Compound 18b, N-({4-[(3,5-diamino-pyrazol-4-yl)azo]phenyl}sulfonyl)-acetamide]",> 100,> 100,,,,,inhibition of the enzyme CDK2 (in words) (CDK2/cyclin E): failed to inhibit the enzyme
"N=C(N)NS(=O)(=O)c1ccc(N=Nc2c(N)n[nH]c2N)cc1 [Compound 19b, N-[amino(imino)methyl]-4-[(3,5-diamino-pyrazol-4-yl)azo]-benzansulfonamide]",,> 100,,,,,

# More lines, main results first:
IC50 (CDK2/cyclin E) [µM],IC50 (CDK1/cyclin B) [µM],SMILES,"viability at 72 h, 100 µM [5, 6] [%]","viability at 72 h, 100 µM [5, 7] [%]","viability at 72 h, 100 µM [5, 8] [%]","viability at 72 h, 100 µM [5, 9] [%]",also measured
45,60,"Nc1n[nH]c(N)c1/N=N/c1ccc(Cl)cc1 [Compound 4b, 3,5-diamino-4-(4-chloro)phenylazo-pyrazole]",,,,,
,> 100,"Nc1n[nH]c(N)c1/N=N/c1ccc(Br)cc1 [Compound 5b, 3,5-diamino-4-(4-bromo)phenylazo-pyrazole]",,,,,
,3.6,"Nc1n[nH]c(N)c1/N=N/c1ccccc1O [Compound 10b, 3,5-diamino-4-(2-hydroxy)phenylazo-pyrazole]",74,84,72,72,"IC50 [1, 10]: > 100 µM; IC50 [2, 11]: > 100 µM; IC50 [3, 12]: > 100 µM; IC50 [4, 13]: > 100 µM"
,6,"Nc1n[nH]c(N)c1/N=N/c1cccc(O)c1 [Compound 11b, 3,5-diamino-4-(3-hydroxy)phenylazo-pyrazole]",70,83,53,71,"IC50 [1, 10]: > 100 µM; IC50 [2, 11]: > 100 µM; IC50 [3, 12]: > 100 µM; IC50 [4, 13]: > 100 µM"
27,34,"Nc1n[nH]c(N)c1N=Nc1cccc(C(=O)O)c1 [Compound 14b, 3,5-diamino-4-(3-carboxy)phenylazo-pyrazole]",,,,,
